Row | Structure (SMILES) | melting point
1 | Nc1ncc(Br)cc1Br | 104 °C
2 | NC(=O)C(F)(F)Cl | 82 °C
3 | COc1cc(Cl)nc(N)n1 | 169 to 176 °C
4 | O=C1OC(=O)c2c(I)c(I)c(I)c(I)c21 | 328 °C
5 | NNC(=S)Nc1ccc(F)cc1 | 171 to 172 °C
6 | CCCCCCCCC=CCCCCCCCC(=O)OCCCC | -26.5 °C
7 | N#CCS(=O)(=O)Cc1cccc(C(F)(F)F)c1 | 119 to 121 °C
8 | O=C(O)c1cccc(C(=O)O)c1C(=O)O | 200 °C
9 | O=[N+]([O-])c1cc([N+](=O)[O-])c(OCCO)cc1OCCO | 136 °C
10 | C=CCNC(N)=O | 85 °C
11 | C[C@]12CCC(=O)C(Br)[C@H]1CC[C@@H]1[C@@H]2CC[C@]2(C)C(O)CC[C@@H]12 (stereo not given in full) | 143 °C
12 | CCCCCCN1CC(C(=O)OC)CC1=O (stereo not given) | 4 °C
13 | O=C(O)C1(C2=CCCCC2)CCCCC1 | 79 °C
14 | COc1ccccc1C1CCNCC1 | 54 to 55 °C
15 | COC(=O)c1ccc(C(=O)OC)c(N)c1 | 132 to 134 °C
16 | Cc1ccc(C)c(Cl)c1 | 1.6 °C
17 | Cc1ccc(O)cc1N | 158 °C
18 | Nc1cc(S(=O)(=O)O)ccc1Cl | 300 °C
19 | Nc1nsc2ccc([N+](=O)[O-])cc12 | 200 °C

Row | Structure (SMILES) | melting point
20 | FC(F)(F)C(F)(F)C(F)(F)N(C(F)(F)C(F)(F)C(F)(F)F)C(F)(F)C(F)(F)C(F)(F)F | -52 °C
21 | C[Si](C)(C)C=C[Si](C)(C)C | -18.5 °C
22 | COc1ccc(N)cc1N | 67.5 °C
23 | O=C1OC(=O)c2c(Cl)cccc21 | 123 to 126 °C
24 | CCCCCCC(=O)OCCC | -63.5 °C
25 | c1ccc2c3c([nH]c2c1)CCCCCC3 | 74 °C
26 | COC(=O)c1cc([N+](=O)[O-])ccc1Br | 81 °C
27 | CC(=O)C=Cc1ccc(Cl)cc1 | 55 °C
28 | O=Cc1c(F)c(F)c(F)c(F)c1F | 25.5 °C
29 | CC(C)[Si](C(C)C)(C(C)C)C1SCCCS1 | 48 °C
30 | CCCC1Nn2c(nnc2-c2ccc(OCC)cc2)S1 (stereo not given) | 90 °C
31 | Brc1cnc2[nH]ccc2c1 | 179 °C
32 | Cc1ccc(C(c2ccc(C)o2)c2cc(Cl)ccc2O)o1 | 85 °C
33 | Cc1nc2ccc3ccccc3c2o1 | 37 °C
34 | O=c1c(O)c(-c2ccc(O)c(O)c2)oc2cc(O)cc(O)c12 | 316 °C
35 | Cc1cc(C)n2cnnc2n1 | 165 to 167 °C
36 | CC1C(C(=O)NN)C1C(=O)NN (stereo not given) | 242 to 245 °C
37 | CNC(=O)C(F)(F)F | 51 °C
38 | Oc1nc(S)c2nc[nH]c2n1 | 300 °C

Row | Structure (SMILES) | melting point
39 | O=C(O)c1cncnc1 | 259 to 261 °C
40 | Cn1ncc2c(Cl)ncnc21 | 97 to 100 °C
41 | CS(=O)(=O)c1ccc(N)c(Cl)c1 | 191 to 198 °C
42 | CNC(=O)N(C)c1nc2ccccc2s1 | 120 °C
43 | COc1ccc(C(C)=O)cc1[N+](=O)[O-] | 98 °C
44 | Cc1cc(O)cc(C)c1C | 106 °C
45 | Oc1c(Br)cc(Br)cc1-c1cc(Br)cc(Br)c1O | 205 °C
46 | CC1=C(C)C2=CC=C3C(O)=C(CC(C)O)C(=O)C(O)=C3C2(C)CC1=O (stereo not given) | 187 °C
47 | Cc1cc(Cl)nn1C | 47.5 °C
48 | CNc1ccccn1 | 15 °C
49 | CC(=O)c1cc(F)cc(F)c1 | 39 °C
50 | CCCCCCCC(=O)OC(=O)CCCCCCC | -1 °C
51 | O=C(O)c1ccc(N2CCOCC2)cc1 | 278 to 281 °C
52 | N#Cc1cccc(Cl)c1 | 41 °C
53 | CCOC(=O)C1(C)OC(=O)N(c2cc(Cl)cc(Cl)c2)C1=O (stereo not given) | 113 °C
54 | CCC(C)S (stereo not given) | -165 °C
55 | Cn1cnc([N+](=O)[O-])c1Sc1ncnc2nc[nH]c12 | 244 °C
56 | O=C(O)c1cc(F)cc2c1OCOC2 | 180 to 182 °C
57 | Cc1ccc(Br)cc1Br | -9.7 °C

Results, then the molecule that gave them:

Row | melting point | Structure (SMILES)
58 | 95 °C | O=C(CCC(O)c1ccccc1)c1ccccc1 (stereo not given)
59 | 210 °C | O=C(c1ccc([N+](=O)[O-])cc1)c1noc(-c2ccc(Cl)cc2)c1S(=O)(=O)c1ccccc1
60 | 198 to 199 °C | Cc1cc(C)c(CC(=O)c2oc3ccccc3c2NC(=O)c2ccccc2)c(C)c1
61 | 97 °C | CC(=O)/C(=C\N)c1ccccc1
62 | 139 °C | OC(Cc1ccccc1)C(Cc1ccccc1)=NNc1ccc(Br)cc1 (stereo not given)
63 | 113 °C | O=C(O)c1ccccc1Oc1ccccc1
64 | 109 to 114 °C | COc1ccc(C(=O)c2cccc(Cl)c2)cc1[N+](=O)[O-]
65 | 276 °C | CC(=O)Nc1cc(NC(C)=O)c(C=Cc2ccccc2)c([N+](=O)[O-])c1C=Cc1ccccc1
66 | 20 °C | Oc1ccccc1S
67 | 138 to 140 °C | CC(=O)c1sc(-c2ccc(Cl)cc2)cc1N
68 | 263 °C | O=C1CC(c2cccc(C3=NN(c4ccccc4)C(=O)C3)c2)=NN1c1ccccc1
69 | 75 to 77 °C | N#CCc1cccc(CC#N)c1F
70 | 26 °C | CCOC(=O)c1ccc(F)cc1
71 | 229 °C | N#CC(=Cc1cccnc1)C1N=c2ccccc2=N1
72 | 59 to 65 °C | OCCc1c(Cl)cccc1Cl
73 | 48.5 °C | Clc1ccc(CC(=CCN2CCCC2)c2ccccc2)cc1
74 | 166 °C | O=C(Cc1ccccc1[N+](=O)[O-])c1ccccc1[N+](=O)[O-]
75 | 124 to 125 °C | OCc1ccc(-n2cncn2)cc1
76 | 209 °C | Cc1cc(N=Nc2ccc(N=Nc3ccccc3)cc2)ccc1N=Nc1ccc(N=Nc2ccccc2)cc1

Row | melting point | Structure (SMILES)
77 | 300 °C | Oc1c(-c2ccc3ccccc3c2O)ccc2ccccc12
78 | 68 °C | OC1(c2ccccc2)Cc2ccccc21 (stereo not given)
79 | 260 °C | O=C(NNC(=O)c1ccc(Cl)cc1)c1ccc(Cl)cc1
80 | 168 °C | Cc1ccc(C2CC(c3ccc4ccccc4c3)=NN2c2ccccc2)cc1 (stereo not given)
81 | 28.5 °C | Sc1ccccc1S
82 | 352 °C | O=C(Nc1ccc(C=Cc2ccc(NC(=O)c3ccccc3)cc2)cc1)c1ccccc1
83 | 176 °C | CN(C)C(=O)C(c1ccccc1)C(O)c1ccccc1 (stereo not given)
84 | 127 to 128 °C | CC(=O)C(=Cc1ccc(-c2ccccc2[N+](=O)[O-])o1)C(C)=O
85 | 103 °C | CC(=O)N(C)c1ccccc1
86 | 160 °C | Cn1c(/C(C#N)=N/Nc2ccc(Cl)cc2Cl)nc2ccccc21
87 | 38 to 40 °C | CC(=O)c1ccccc1OCc1ccccc1
88 | 99 to 102 °C | OCc1cc(-c2ccccc2)on1
89 | 180 to 181 °C | O=C(O)c1cccc(-n2cccc2)c1
90 | 178 to 181 °C | Cc1ccc(NC(N)=O)cc1
91 | 96 °C | Cc1ccc(NO)cc1
92 | 152 °C | O=C1c2ccccc2CC2C=CC=CC12 (stereo not given)
93 | 117 °C | CC(=O)Nc1ccccc1CCc1ccccc1
94 | 56 °C | CC(CCC(=O)O)Cc1ccccc1 (stereo not given)
95 | 207 to 210 °C | O=C(O)C=Cc1ccc(F)cc1
